Experimental data as given in ChEMBL document CHEMBL5608173, “Discovery of novel natural-product-derived mutant isocitrate dehydrogenases 1 inhibitors: Structure-based virtual screening, biological evaluation and structure-activity relationship study” (Eur J Med Chem, 2024).
Active and inactive are the calls of the source. The rule behind the calls is not given here.

Tests used:
HT-1080 [1] = assay: Induction of apoptosis in human HT-1080 cells assessed as viable cells at 6 uM incubated for 12 hrs by Annexin V-FITC/PI staining based flow cytometric analysis (reference value: 96.65 %); type: functional; conditions: read-out: Activity
[2] = target: Isocitrate dehydrogenase [NADP] cytoplasmic (Homo sapiens, UniProt O75874, R132H); assay: Inhibition of IDH1 R132H mutant in human U-87 MG cells assessed as reduction in 2-HG level incubated for 48 hrs in presence of NAD+ by resazurin fluorescence dye based Sigma MAK320-1 assay kit analysis; type: cell-based
HT-1080 [3] = assay: Inhibition of cell migration in human HT-1080 cells incubated for 24 hrs by cell scratch assay; type: functional, cell-based; conditions: dose 1-3 µM
[4] = Cmax in Sprague-Dawley rat at 5 mg/kg, po measured after 24 hrs by LC-MS/MS analysis; type: ADME, organism-based; conditions: in vivo
[5] = Clearance in Sprague-Dawley rat at 0.5 mg/kg, iv measured after 24 hrs by LC-MS/MS analysis; type: ADME, organism-based; conditions: in vivo
HT-1080 [6] = assay: Induction of apoptosis in human HT-1080 cells assessed as necrotic cells at 6 uM incubated for 12 hrs by Annexin V-FITC/PI staining based flow cytometric analysis (reference value: 0.38 %); type: functional
HT-1080 [7] = assay: Induction of apoptosis in human HT-1080 cells assessed as early apoptotic cells at 2 uM incubated for 48 hrs by Annexin V-FITC/PI staining based flow cytometric analysis (reference value: 2.33 %); type: functional
BEAS-2B = assay: Cytotoxicity against human BEAS-2B cells assessed as reduction in cell viability at 0.5 to 2 uM; type: toxicity, cell-based; conditions: dose 0.5-2 µM
HT-1080 [8] = assay: Induction of apoptosis in human HT-1080 cells assessed as late apoptotic cells at 4 uM incubated for 48 hrs by Annexin V-FITC/PI staining based flow cytometric analysis (reference value: 1.15 %); type: functional
HT-1080 [9] = assay: Induction of apoptosis in human HT-1080 cells assessed as early apoptotic cells at 6 uM incubated for 48 hrs by Annexin V-FITC/PI staining based flow cytometric analysis (reference value: 2.36 %); type: functional
HT-1080 [10] = assay: Induction of apoptosis in human HT-1080 cells assessed as necrotic cells at 6 uM incubated for 48 hrs by Annexin V-FITC/PI staining based flow cytometric analysis (reference value: 0.38 %); type: functional
HT-1080 [11] = assay: Induction of apoptosis in human HT-1080 cells assessed as late apoptotic cells at 2 uM incubated for 48 hrs by Annexin V-FITC/PI staining based flow cytometric analysis (reference value: 1.15 %); type: functional
[12] = Half-life in Sprague-Dawley rat at 0.5 mg/kg, iv measured after 24 hrs by LC-MS/MS analysis; type: ADME, organism-based; conditions: in vivo
[13] = test system: Isocitrate dehydrogenase [NADP] cytoplasmic (Homo sapiens), O75874 [R132C]; assay: Inhibition of recombinant human IDH1 R132C mutant extracted from Escherichia coli BL21 (DE3) cells using alpha-ketoglutarate as substrate at 0.2 uM incubated for 60 mins in presence of NADPH by absorbance based assay relative to control
[14] = Oral bioavailability in Sprague-Dawley rat at 5 mg/kg measured after 24 hrs by LC-MS/MS analysis; type: ADME, organism-based; conditions: in vivo
HT-1080 [15] = assay: Induction of apoptosis in human HT-1080 cells assessed as early apoptotic cells at 6 uM incubated for 24 hrs by Annexin V-FITC/PI staining based flow cytometric analysis (reference value: 2.36 %); type: functional
HT-1080 [16] = assay: Antitumor activity against human HT-1080 cells xenografted in female nude mouse assessed as suppression of tumor growth at 40 mg/kg, ip administered every 2 days for 8 days; type: functional, organism-based; conditions: time 8.0 day
U-87 MG = assay: Antiproliferative activity against human U-87 MG cells harboring IDH1 R132H mutant assessed as reduction in cell viability incubated for 72 hrs by MTT assay; type: functional, U-87MG ATCC
HT-1080 [17] = assay: Induction of apoptosis in human HT-1080 cells assessed as viable cells at 6 uM incubated for 24 hrs by Annexin V-FITC/PI staining based flow cytometric analysis (reference value: 96.65 %); type: functional; conditions: read-out: Activity
[18] = AUC (0 to t) in Sprague-Dawley rat at 0.5 mg/kg, iv measured after 24 hrs by LC-MS/MS analysis; type: ADME, organism-based; conditions: in vivo
HT-1080 [19] = assay: Induction of apoptosis in human HT-1080 cells assessed as necrotic cells at 8 uM incubated for 48 hrs by Annexin V-FITC/PI staining based flow cytometric analysis (reference value: 0.45 %); type: functional
[20] = Toxicity in Sprague-Dawley rat assessed as observable clinical signs at 0.5 mg/kg, iv measured after 24 hrs; type: organism-based; conditions: in vivo
[21] = Cmax in Sprague-Dawley rat at 0.5 mg/kg, iv measured after 24 hrs by LC-MS/MS analysis; type: ADME, organism-based; conditions: in vivo
[22] = target: Isocitrate dehydrogenase [NADP] cytoplasmic (Homo sapiens, UniProt O75874, R132C); assay: Inhibition of IDH1 R132C mutant in human HT-1080 cells assessed as reduction in 2-HG level incubated for 48 hrs in presence of NAD+ by resazurin fluorescence dye based Sigma MAK320-1 assay kit analysis; type: cell-based
HT-1080 [23] = assay: Induction of apoptosis in human HT-1080 cells assessed as viable cells at 6 uM incubated for 48 hrs by Annexin V-FITC/PI staining based flow cytometric analysis (reference value: 96.65 %); type: functional; conditions: read-out: Activity
[24] = Clearance in Sprague-Dawley rat at 5 mg/kg, po measured after 24 hrs by LC-MS/MS analysis; type: ADME, organism-based; conditions: in vivo
HT-1080 [25] = assay: Cell cycle arrest in human HT-1080 cells assessed as G2 phase cells at 10 uM incubated for 24 hrs by PI staining based flow cytometric analysis (reference value: 23.6 %); type: functional
HT-1080 [26] = assay: Antiproliferative activity against human HT-1080 cells harboring IDH1 R132C mutant assessed as reduction in cell viability at 10 uM incubated for 72 hrs by MTT assay; type: functional, cell-based
[27] = Half-life in Sprague-Dawley rat at 5 mg/kg, po measured after 24 hrs by LC-MS/MS analysis; type: ADME, organism-based; conditions: in vivo
[28] = In vivo inhibition of IDH1 mutant in female nude mouse xenografted with human HT-1080 cells assessed as reduction in 2-HG levels in tumor at 20 mg/kg, ip administered twice at 1 hrs interval by resazurin fluorescence dye based Sigma MAK320-1 assay kit analysis relative to control; type: functional
HT-1080 [29] = assay: Induction of apoptosis in human HT-1080 cells assessed as early apoptotic cells at 8 uM incubated for 48 hrs by Annexin V-FITC/PI staining based flow cytometric analysis (reference value: 2.33 %); type: functional
HT-1080 [30] = assay: Induction of apoptosis in human HT-1080 cells assessed as viable cells at 8 uM incubated for 48 hrs by Annexin V-FITC/PI staining based flow cytometric analysis (reference value: 96.07 %); type: functional; conditions: read-out: Activity
HT-1080 [31] = assay: Induction of apoptosis in human HT-1080 cells assessed as necrotic cells at 4 uM incubated for 48 hrs by Annexin V-FITC/PI staining based flow cytometric analysis (reference value: 0.45 %); type: functional
HT-1080 [32] = assay: Induction of apoptosis in human HT-1080 cells assessed as viable cells at 2 uM incubated for 48 hrs by Annexin V-FITC/PI staining based flow cytometric analysis (reference value: 96.07 %); type: functional; conditions: read-out: Activity
[33] = Toxicity in Sprague-Dawley rat assessed as observable clinical signs at 5 mg/kg, po measured after 24 hrs; type: organism-based; conditions: in vivo

Sequence of Isocitrate dehydrogenase [NADP] cytoplasmic (Homo sapiens), O75874 [R132C] (O75874 whole entry R132C): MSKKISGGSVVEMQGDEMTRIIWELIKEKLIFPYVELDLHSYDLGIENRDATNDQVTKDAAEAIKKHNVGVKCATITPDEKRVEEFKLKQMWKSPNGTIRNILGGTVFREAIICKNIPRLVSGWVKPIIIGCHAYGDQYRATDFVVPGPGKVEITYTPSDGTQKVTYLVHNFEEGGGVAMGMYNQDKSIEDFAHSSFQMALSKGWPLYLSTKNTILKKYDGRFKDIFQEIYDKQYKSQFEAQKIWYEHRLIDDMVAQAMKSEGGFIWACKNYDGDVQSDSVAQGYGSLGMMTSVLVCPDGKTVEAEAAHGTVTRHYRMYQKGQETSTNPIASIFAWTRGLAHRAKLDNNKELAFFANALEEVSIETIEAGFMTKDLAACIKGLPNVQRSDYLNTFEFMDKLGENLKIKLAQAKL
Sequence of Isocitrate dehydrogenase [NADP] cytoplasmic (Homo sapiens, UniProt O75874, R132H) (O75874 2-414 R132H limits assumed): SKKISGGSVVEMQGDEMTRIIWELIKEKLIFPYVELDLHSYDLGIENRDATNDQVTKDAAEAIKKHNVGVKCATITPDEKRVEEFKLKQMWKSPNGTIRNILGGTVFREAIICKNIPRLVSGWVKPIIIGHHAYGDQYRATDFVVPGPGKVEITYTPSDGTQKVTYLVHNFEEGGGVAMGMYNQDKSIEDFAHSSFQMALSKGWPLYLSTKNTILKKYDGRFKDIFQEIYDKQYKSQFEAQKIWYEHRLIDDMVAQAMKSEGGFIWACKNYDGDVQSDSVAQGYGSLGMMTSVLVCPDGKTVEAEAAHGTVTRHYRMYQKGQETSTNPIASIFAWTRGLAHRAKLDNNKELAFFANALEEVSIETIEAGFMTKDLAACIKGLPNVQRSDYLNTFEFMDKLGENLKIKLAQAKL
Sequence of Isocitrate dehydrogenase [NADP] cytoplasmic (Homo sapiens, UniProt O75874, R132C) (O75874 2-414 R132C limits assumed): as the sequence (O75874 2-414 R132H limits assumed) above, with H131C counted along it

- EC50 [2]: 182 nM
- Cmax [4]: 478 ng/mL
- clearance [5]: 27.3 mL/min/kg
- half-life [12]: 1.46 h
- inhibition [13]: 65.9%
- bioavailability [14]: 16.8%
- AUC(0-t) at 24 h [18]: 236 ng·h/mL
- Cmax [21]: 766 ng/mL
- EC50 [22]: 84 nM
- CL/F [24]: 168 mL/min/kg
- half-life [27]: 2.13 h
SMILES: COc1cc(O)c(-c2cc(-c3ccc(O)cc3)nc(N3CCNCC3)n2)cc1CC=C(C)C
- viability at 6 µM (HT-1080 [1]): 91.5%
- inhibition (HT-1080 [3]): Dose-Dependent Effect
- Activity (HT-1080 [6]): 4.99%
- Activity (HT-1080 [7]): 5.1%
- Activity (BEAS-2B): Non-Toxic
- Activity (HT-1080 [8]): 9.67%
- Activity (HT-1080 [9]): 11.25%
- Activity (HT-1080 [10]): 1.35%
- Activity (HT-1080 [11]): 4.96%
- Activity (HT-1080 [15]): 3.25%
- Activity (HT-1080 [16]): Active
- GC50 (U-87 MG): 3480 nM
- viability at 6 µM (HT-1080 [17]): 87.3%
- Activity (HT-1080 [19]): 4.66%
- Activity [20]: Non-Toxic
- viability at 6 µM (HT-1080 [23]): 80.8%
- Activity (HT-1080 [25]): 3%
- Activity (HT-1080 [26]): Active
- inhibition in vivo at 20 mg/kg [28]: 75%
- Activity (HT-1080 [29]): 7.82%
- viability at 8 µM (HT-1080 [30]): 69.6%
- Activity (HT-1080 [31]): 2.13%
- viability at 2 µM (HT-1080 [32]): 88.8%
- Activity [33]: Non-Toxic
